Measurements published in US10087188B2, “Benzamide imidazopyrazine Btk inhibitors” (MERCK SHARP & DOHME CORP., priority 2014, dated 2018).
Like-named read-outs stand apart in the source and are kept apart here.

How the values were obtained:
[1] = target: BTK enzyme (recombinant full-length BTK, hBTK) (Homo sapiens (Human), UniProt Q06187); test: Btk enzyme activity assay, LANCE TR-FRET; format: biochemical; details: 50 pM hBTK, 2 μM biotin-A5-peptide, 25 μM ATP; 60 minute compound & enzyme incubation; read-out: BTK binding IC50
Description: Btk Enzyme Activity Assay Methods
BTK enzymatic activity was determined with the LANCE (Lanthanide Chelate Excite) TR-FRET (Time-resolved fluorescence resonance energy transfer) assay. […] After 60 minutes incubation with detection reagents, reaction plates were read on a PerkinElmer EnVision plate reader using standard TR-FRET protocol.

[2] = test system: HeLa cells; test: [3H] Adenosine uptake assay; format: cell-based; details: accumulation of tritiated adenosine into HeLa cells, compound concentration range 10 μM to 0.032 nM, read-out: ADU inhibition IC50 (adenosine uptake inhibition potency)
Summary of the method: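 HeLa cells in HBSS + 5% FBS preincubated 30 min at ambient temperature with compound (0.25% DMSO), then [3H]adenosine (500 nM stock) added for 60 min. Uptake measured by scintillation proximity counting; IC50 from 4-parameter fit of counts vs log concentration.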

Chain of BTK enzyme (recombinant full-length BTK, hBTK) (Q06187 whole entry): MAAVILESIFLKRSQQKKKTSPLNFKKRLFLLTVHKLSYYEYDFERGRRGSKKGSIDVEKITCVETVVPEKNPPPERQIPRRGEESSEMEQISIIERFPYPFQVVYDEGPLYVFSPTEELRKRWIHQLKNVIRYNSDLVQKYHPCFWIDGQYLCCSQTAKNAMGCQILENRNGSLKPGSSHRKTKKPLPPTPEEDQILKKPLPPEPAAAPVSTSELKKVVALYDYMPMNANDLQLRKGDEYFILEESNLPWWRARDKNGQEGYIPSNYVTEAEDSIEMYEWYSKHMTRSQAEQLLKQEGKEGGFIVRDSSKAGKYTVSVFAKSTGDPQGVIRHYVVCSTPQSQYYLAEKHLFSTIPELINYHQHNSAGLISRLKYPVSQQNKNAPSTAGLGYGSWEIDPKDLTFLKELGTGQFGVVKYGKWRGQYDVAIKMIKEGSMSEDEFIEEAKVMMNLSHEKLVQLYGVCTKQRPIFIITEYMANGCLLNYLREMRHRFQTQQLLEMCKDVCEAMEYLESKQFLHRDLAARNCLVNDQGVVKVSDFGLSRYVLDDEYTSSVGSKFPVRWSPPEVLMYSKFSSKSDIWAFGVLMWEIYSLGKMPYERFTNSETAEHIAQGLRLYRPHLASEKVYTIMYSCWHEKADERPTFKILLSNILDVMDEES

Row | IC50 [1] | IC50 ([2]; Homo sapiens, HeLa) | IC50 [2] | SMILES
1 | 0.76 nM | 10000 nM |  | COc1cc(C(=O)Nc2cc(C(F)(F)F)ccn2)ccc1-c1nc([C@H]2CN(C(=O)C34CC(C(=O)O)(C3)C4)[C@@H](C)CO2)n2ccnc(N)c12 [Example 177, 3-({(2R,5S)-2-[8-amino-1-(2-methoxy-4-{[4-(trifluoromethyl)pyridin-2-yl]carbamoyl}phenyl)imidazo [1,5-a]pyrazin-3-yl]-5-methylmorpholin-4-yl}carbonyl)bicyclo[1.1.1] pentane-1-carboxylic acid]
2 | 0.59 nM | 5200 nM |  | CC1(C)[C@H](c2nc(-c3ccc(C(=O)Nc4cc(C(F)(F)F)ccn4)cc3Cl)c3c(N)nccn23)CC[C@]1(C)C(=O)O [Example 129, (1S,3R)-3-[8-amino-1-(2-chloro-4-{[4-(trifluoromethyl)pyridin-2-yl]carbamoyl}phenyl)imidazo[1,5-a]pyrazin-3-yl]-1,2,2-trimethylcyclopentane carboxylic acid]
3 | 1.7 nM | 4060 nM |  | C[C@H]1CO[C@@H](c2nc(-c3ccc(C(=O)Nc4cc(C(F)(F)F)ccn4)cc3F)c3c(N)ncc(Cl)n23)CN1[C@H]1CC[C@@](C)(C(=O)O)CC1 [Example 201, cis-4-{(2R,5S)-2-[8-amino-5-chloro-1-(2-fluoro-4-{[4-(trifluoromethyl)pyridin-2-yl]carbamoyl}phenyl)imidazo [1,5-a]pyrazin-3-yl]-5-methylmorpholin-4-yl}-1-methylcyclohexanecarboxylic acid]
4 | 0.17 nM | 3420 nM |  | C[C@@]1(C(=O)O)CC[C@@](C)(c2nc(-c3ccc(C(=O)Nc4cc(C(F)(F)F)ccn4)cc3F)c3c(N)nccn23)C1 [Example 136, (1R,3R)-3-[8-amino-1-(2-fluoro-4-{[4-(trifluoromethyl)pyridin-2-yl]carbamoyl}phenyl)imidazo[1,5-a]pyrazin-3-yl]-1,3-dimethylcyclopentane carboxylic acid]
5 | 1.7 nM | 4040 nM |  | C[C@H]1CO[C@@H](c2nc(-c3ccc(C(=O)Nc4cc(C(F)(F)F)ccn4)cc3F)c3c(N)nccn23)CN1[C@H]1CC[C@@](C)(C(=O)O)CC1 [Example 194, cis-4-{(2R,5S)-2-[8-amino-1-(2-fluoro-4-{[4-(trifluoromethyl)pyridin-2-yl]carbamoyl}phenyl)imidazo [1,5-a]pyrazin-3-yl]-5-methylmorpholin-4-yl}-1-methylcyclohexanecarboxylic acid]
6 | 0.56 nM | 2840 nM |  | C[C@H]1CO[C@@H](c2nc(-c3ccc(C(=O)Nc4cc(C(F)(F)F)ccn4)cc3F)c3c(N)nccn23)CN1[C@H]1CC[C@](C)(C(=O)O)CC1 [Example 193, trans-4-{(2R,5S)-2-[8-amino-1-(2-fluoro-4-{[4-(trifluoromethyl)pyridin-2-yl]carbamoyl}phenyl)imidazo [1,5-a]pyrazin-3-yl]-5-methylmorpholin-4-yl}-1-methylcyclohexanecarboxylic acid]

The next lines start with the compound.

Row | SMILES | IC50 [1] | IC50 ([2]; Homo sapiens, HeLa) | IC50 [2]
7 | CCOc1cc(C(=O)Nc2cc(C(F)(F)F)ccn2)ccc1-c1nc(C23C4C5C2C2C3C4C52C(=O)O)n2ccnc(N)c12 (centres unmarked) [Example 71, 4-(8-amino-1-(2-ethoxy-4-((4-(trifluoromethyl)pyridin-2-yl)carbamoyl)phenyl)imidazo[1,5-a]pyrazin-3-yl)cubane-1-carboxylic acid] | 0.65 nM | 2470 nM | 
8 | CCOc1cc(C(=O)Nc2cc(C(F)(F)F)ccn2)c(F)cc1-c1nc([C@@H]2CC[C@](C)(C(=O)O)C2(C)C)n2ccnc(N)c12 [Example 114, (1S,3R)-3-[8-amino-1-(2-ethoxy-5-fluoro-4-{[4-(trifluoromethyl)pyridin-2-yl]carbamoyl}phenyl)imidazo[1,5-a]pyrazin-3-yl]-1,2,2-trimethylcyclopentane carboxylic acid] | 0.92 nM | 2750 nM | 
9 | CCOc1cc(C(=O)Nc2cc(C(F)(F)F)ccn2)ccc1-c1nc([C@@H]2CC[C@@](C(=O)O)(C(C)C)C2)n2c(Cl)cnc(N)c12 [Example 109, (1S,3R)-3-[8-amino-5-chloro-1-(2-ethoxy-4-{[4-(trifluoromethyl)pyridin-2-yl]carbamoyl}phenyl)imidazo[1,5-a]pyrazin-3-yl]-1-(1-methylethyl)cyclo-pentanecarboxylic acid] | 0.64 nM | 6840 nM | 
10 | CC1(C)[C@@H](C(=O)O)CC[C@]1(C)c1nc(-c2ccc(C(=O)Nc3cc(C(F)(F)F)ccn3)cc2)c2c(N)nccn12 [Example 147, (1S,3S)-3-[8-amino-1-(4-{[4-(trifluoromethyl)pyridin-2-yl]carbamoyl}phenyl)imidazo[1,5-a]pyrazin-3-yl]-2,2,3-trimethylcyclopentane carboxylic acid] | 7 nM | 10000 nM | 
11 | CC1(C(=O)O)CCC(c2nc(-c3ccc(C(=O)Nc4cc(C(F)(F)F)ccn4)cc3)c3c(N)ncc(Cl)n23)CC1 (centres unmarked) [Example 162, 4-[8-amino-5-chloro-1-(4-{[4-(trifluoromethyl)pyridin-2-yl]carbamoyl}phenyl)imidazo[1,5-a]pyrazin-3-yl]-1-methylcyclohexane-carboxylic acid] | 2.3 nM | 5540 nM | 
12 | CCOc1cc(C(=O)Nc2cc(C3CC3)ccn2)cc(F)c1-c1nc([C@@H]2CC[C@](C)(C(=O)O)C2(C)C)n2ccnc(N)c12 [Example 121, (1S,3R)-3-(8-amino-1-{4-[(4-cyclopropylpyridin-2-yl)carbamoyl]-2-ethoxy-6-fluorophenyl}imidazo [1,5-a]pyrazin-3-yl)-1,2,2-trimethylcyclopentane carboxylic acid] | 0.37 nM | 7320 nM | 
13 | CC1(C(=O)O)CCC(C)(c2nc(-c3ccc(C(=O)Nc4cc(C(F)(F)F)ccn4)cc3Cl)c3c(N)nccn23)CC1 (centres unmarked) [Example 133, 4-[8-amino-1-(2-chloro-4-{[4-(trifluoromethyl)pyridin-2-yl]carbamoyl}phenyl)imidazo[1,5-a]pyrazin-3-yl]-1,4-dimethylcyclohexane-carboxylic acid] | 1 nM | 5230 nM | 
14 | C[C@@]1(C(=O)O)CCC[C@@](C)(c2nc(-c3ccc(C(=O)Nc4cc(C(F)(F)F)ccn4)cc3)c3c(N)nccn23)C1 [Example 138, (1R,3R)-3-[8-amino-1-(4-{[4-(trifluoromethyl)pyridin-2-yl]carbamoyl}phenyl)imidazo[1,5-a]pyrazin-3-yl]-1,3-dimethylcyclohexane-carboxylic acid] | 0.34 nM |  | 6070 nM
15 | C[C@]1(C(=O)O)CCCN(c2nc(-c3ccc(C(=O)Nc4cc(C(F)(F)F)ccn4)cc3)c3c(N)nccn23)C1 [Example 42, (3S)-1-[8-amino-1-(4-{[4-(trifluoromethyl)pyridin-2-yl]carbamoyl}phenyl)imidazo[1,5-a]pyrazin-3-yl]-3-methylpiperidine-3-carboxylic acid] | 22.9 nM | 2770 nM | 
16 | CN1CC[C@@H](c2nc(-c3ccc(C(=O)Nc4cc(C(F)(F)F)ccn4)cc3)c3c(N)nccn23)C[C@H]1C(=O)O [Example 82, (2S,4R)-4-[8-amino-1-(4-{[4-(trifluoromethyl)pyridin-2-yl]carbamoyl}phenyl)imidazo[1,5-a]pyrazin-3-yl]-1-methylpiperidine-2-carboxylic acid] | 1.2 nM | 1730 nM | 
